These results are taken from patent publication US7119213B2, “Pharmacologically active isolated or purified dauer pheromone compound for controlling aging and stress and method for isolating and characterizing the same” (priority 2002, dated 2006).

In the experiment the test system is C. elegans. Briefly: Dauer inducing activity assay (dauer test on worms grown in S medium). The experiment is classed as in vivo. As to the method: To examine whether this ethanol extract (A) can induce dauer larva phase, dauer test is performed on the worms that had been grown in the S medium.
Briefly, the dried A was dissolved in double distilled water and extracted with the equal volume of ethyl acetate. This extraction procedure was repeated 5 times.
After confirming the dauer inducing activity of B, extracts obtained by the above-described process are loaded onto a silica-gel absorption column which has been equilibrated with hexane: ethyl acetate: methanol=7:7:1. An active form of dauer pheromone (C) that were adsorbed onto the column was eluted with methanol.
To further purify C, HPLC separation is carried out using amine column. Briefly, the fraction C is dissolved in methanol and diluted with double distilled water (MeOH: ddH2O=1:1). This solution containing C is loaded onto the amine column, which is equilibrated with isopropanol solution (isopropanol: water=1:1). A dauer pheromone fraction bound to the column (Fraction D) was eluted with a gradient solution of the same solvent.
Table 5 outlines the result of dauer inducing assay using the active fractions D from the amine column chromatography. Finally, a dauer pheromone (E) is completely isolated and purified refined by size exclusion column chromatography using methanol as an eluent solution.
The pure dauer pheromone characterized by the above described procedures is defined as the structural formula I, and its chemical formula is 6-(3,5-dihydroxy-6-methyl-tetrahydro-pyran-2-yloxy)-heptanoic acid or its sodium salt.

For `CC(CCCCC(=O)O)OC1OC(C)C(O)CC1O` (stereo not drawn) [W251 column fraction (purified form), 6-(3,5-dihydroxy-6-methyl-tetrahydro-pyran-2-yloxy)-heptanoic acid], the “Formation of dauer larva stage (%)” value (dauer test on C. elegans) was 100%. Moreover, the “Population in dauer larva stage” value (number of worms in dauer larva stage in the dauer test) is 62. Further, where the note is “pure pheromone added onto the media”, the “Induction of dauer phase (in words)” value was “markedly induce the worm into dauer phase”.
